Results published in patent US20260083723A1, “THERAPEUTIC AGENT OR PROPHYLACTIC AGENT FOR AMYOTROPHIC LATERAL SCLEROSIS” (Toray Industries, Inc., priority 2022, published 2026).
Structures can show the parent of a compound that is named as a salt.

Assay: In vitro radical scavenging action (DPPH method)
Details: 1.2-100 μmol/L, 30 minutes at room temperature, absorbance at 517 nm
Protocol: The radical scavenging action of a test compound can be evaluated using an in vitro test and, for example, by a method (Antioxidants, 2019, vol. 258) using a stable radical, 1,1-diphenyl-2-picrylhydrazil (DPPH).
Radical scavenging action was evaluated using the DPPH method in the compound of Comparative Example 1, which is a tetrahydroquinoxaline derivative, and in the tetrahydroquinoline derivative (I) or a pharmaceutically acceptable salt thereof. The DPPH method was performed using an antioxidant capacity measurement kit (Dojindo Laboratories).
A test compound was dissolved in DMSO, and the resulting solution was then mixed with an assay buffer and a DPPH solution, which are included in the kit, to a total volume of 200 μL to obtain a final concentration of 10% DMSO, and the reaction was allowed to proceed. Wells added with […] ferrostatin-1, a radical scavenger, were grouped as “control,” and wells not added with test compound were grouped as “background”. The test compound was serially diluted 3-fold starting from a maximum concentration of 100 μmol/L, and the diluted test compound (1.2, 3.7, 11.1, 33.3, or 100 μmol/L) was added and allowed to react at room temperature. Thirty minutes after the reaction, the absorbance at 517 nm was measured, and the average absorbance value was calculated (N=2). The radical scavenging action of the test compound (hereinafter referred to as radical scavenging rate, %) was calculated based on Equation 2. The EC50 value of the test compound was calculated from the radical scavenging rate.
A note “no detection of radical scavenging action (N.D.),” is given to compounds with a EC50 of >100 μmol/L.

EC50, > 100 µM:
NS(=O)(=O)c1ccc(C2CCc3ccccc3N2)cc1 (stereo not shown) [Example 32, 4-(1,2,3,4-tetrahydroquinolin-2-yl)benzenesulfonamide]
Cc1ccc2c(c1)CCC(c1ccc(C(N)=O)cc1)N2 (stereo not shown) [Example 99, 4-(6-methyl-1,2,3,4-tetrahydroquinolin-2-yl)benzamide]
O=C(Cc1ccc2c(c1)CCC(c1ccccc1)N2)NC1CCC1 (stereo not shown) [Example 155, N-cyclobutyl-2-(2-phenyl-1,2,3,4-tetrahydroquinolin-6-yl)acetamide]
O=C(Cc1ccc2c(c1)CCC(c1ccccc1)N2)N1CC(F)(F)C1 (stereo not shown) [Example 149, 1-(3,3-difluoroazetidin-1-yl)-2-(2-phenyl-1,2,3,4-tetrahydroquinolin-6-yl)ethan-1-one]
O=C(Cc1ccc2c(c1)CCC(c1ccccc1)N2)N1CC(O)C1 (stereo not shown) [Example 62, 1-(3-hydroxyazetidin-1-yl)-2-(2-phenyl-1,2,3,4-tetrahydroquinolin-6-yl)ethan-1-one]
Clc1ccc2c(c1)NC(c1ccccc1)CC2 (stereo not shown) [Example 69, 7-chloro-2-phenyl-1,2,3,4-tetrahydroquinoline]
NC(=O)c1ccc(C2CCc3ccccc3N2)cc1 (stereo not shown) [Example 36, 4-(1,2,3,4-tetrahydroquinolin-2-yl)benzamide]
CC(=O)Nc1ccc(C2CCc3ccccc3N2)cc1 (stereo not shown) [Example 21, N-(4-(1,2,3,4-tetrahydroquinolin-2-yl)phenyl)acetamide]
c1ccc([C@H]2CCc3ccccc3N2)cc1 [Example 2, (R)-2-phenyl-1,2,3,4-tetrahydroquinoline]
Fc1ccc2c(c1)NC(c1ccccc1)CC2 (stereo not shown) [Example 68, 7-fluoro-2-phenyl-1,2,3,4-tetrahydroquinoline]
Fc1cccc2c1CCC(c1ccccc1)N2 (stereo not shown) [Example 66, 5-fluoro-2-phenyl-1,2,3,4-tetrahydroquinoline]
O=C(Cc1ccc2c(c1)CCC(c1ccccc1)N2)N1CCOCC1 (stereo not shown) [Example 145, 1-morpholino-2-(2-phenyl-1,2,3,4-tetrahydroquinolin-6-yl)ethan-1-one]
NC(=O)c1ccc(C2CCc3cc(Cl)ccc3N2)cc1 (stereo not shown) [Example 122, 4-(6-chloro-1,2,3,4-tetrahydroquinolin-2-yl)benzamide]
NC(=O)c1ccc(C2CCc3ccccc3N2)cc1 (stereo not shown) [Example 38, 4-(1,2,3,4-tetrahydroquinolin-2-yl)benzamide]
NS(=O)(=O)c1ccc(C2CCc3ccccc3N2)cc1 (stereo not shown) [Example 33, 4-(1,2,3,4-tetrahydroquinolin-2-yl)benzenesulfonamide]
NS(=O)(=O)c1ccc(C2CCc3cc(F)ccc3N2)cc1 (stereo not shown) [Example 107, 4-(6-fluoro-1,2,3,4-tetrahydroquinolin-2-yl)benzenesulfonamide]
Cc1ccc2c(c1)CCC(c1ccc(S(N)(=O)=O)cc1)N2 (stereo not shown) [Example 120, 4-(6-methyl-1,2,3,4-tetrahydroquinolin-2-yl)benzenesulfonamide]
Fc1ccc2c(c1)CCC(c1ccccc1)N2 (stereo not shown) [Example 82, 6-fluoro-2-phenyl-1,2,3,4-tetrahydroquinoline]
NC(=O)c1ccc(C2CCc3c(Cl)cccc3N2)cc1 (stereo not shown) [Example 138, 4-(5-chloro-1,2,3,4-tetrahydroquinolin-2-yl)benzamide]
NS(=O)(=O)c1ccc(C2CCc3cc(Cl)ccc3N2)cc1 (stereo not shown) [Example 117, 4-(6-chloro-1,2,3,4-tetrahydroquinolin-2-yl)benzenesulfonamide]
O=C1CN(C(=O)Cc2ccc3c(c2)CCC(c2ccccc2)N3)CCN1 (stereo not shown) [Example 157]
Cc1cccc2c1CCC(c1ccc(S(N)(=O)=O)cc1)N2 (stereo not shown) [Example 112, 4-(5-methyl-1,2,3,4-tetrahydroquinolin-2-yl)benzenesulfonamide]
NS(=O)(=O)c1ccc(C2CCc3ccccc3N2)cc1 (stereo not shown) [Example 34, 4-(1,2,3,4-tetrahydroquinolin-2-yl)benzenesulfonamide]
Fc1cc2c(cc1F)NC(c1ccccc1)CC2 (stereo not shown) [Example 85, 6,7-difluoro-2-phenyl-1,2,3,4-tetrahydroquinoline]
Clc1cccc2c1CCC(c1ccccc1)N2 (stereo not shown) [Example 67, 5-chloro-2-phenyl-1,2,3,4-tetrahydroquinoline]
Clc1ccc2c(c1)CCC(c1ccccc1)N2 (stereo not shown) [Example 83, 6-chloro-2-phenyl-1,2,3,4-tetrahydroquinoline]
O=C(Cc1ccc2c(c1)CCC(c1ccccc1)N2)N1CC(O)C1 (stereo not shown) [Example 144, 1-(3-hydroxyazetidin-1-yl)-2-(2-phenyl-1,2,3,4-tetrahydroquinolin-6-yl)ethan-1-one hydrochloride]
NC(=O)c1ccc(C2CCc3cc(Cl)ccc3N2)cc1 (stereo not shown) [Example 131, 4-(6-chloro-1,2,3,4-tetrahydroquinolin-2-yl)benzamide]
NS(=O)(=O)c1ccc(C2CCc3cc(Cl)ccc3N2)cc1 (stereo not shown) [Example 116, 4-(6-chloro-1,2,3,4-tetrahydroquinolin-2-yl)benzenesulfonamide]
O=C(Cc1ccc2c(c1)CCC(c1ccccc1)N2)N1CC(O)C1 (stereo not shown) [Example 143, 1-(3-hydroxyazetidin-1-yl)-2-(2-phenyl-1,2,3,4-tetrahydroquinolin-6-yl)ethan-1-one hydrochloride]
CS(=O)(=O)c1ccc(C2CCc3ccccc3N2)cc1 (stereo not shown) [Example 16, 2-(4-(methylsulfonyl)phenyl)-1,2,3,4-tetrahydroquinoline]
O=C(Cc1ccc2c(c1)CCC(c1ccccc1)N2)N1CCNCC1 (stereo not shown) [Example 158, 2-(2-phenyl-1,2,3,4-tetrahydroquinolin-6-yl)-1-(piperazin-1-yl)ethan-1-one]
Cc1ccc2c(c1)CCC(c1ccc(S(N)(=O)=O)cc1)N2 (stereo not shown) [Example 119, 4-(6-methyl-1,2,3,4-tetrahydroquinolin-2-yl)benzenesulfonamide]
N#Cc1ccc(C2CCc3ccccc3N2)cc1 (stereo not shown) [Example 35, 4-(1,2,3,4-tetrahydroquinolin-2-yl)benzonitrile]
FC(F)(F)Oc1ccc(C2CCc3ccccc3N2)cc1 (stereo not shown) [Example 31, 2-(4-(trifluoromethoxy)phenyl)-1,2,3,4-tetrahydroquinoline]
CN(CCO)C(=O)Cc1ccc2c(c1)CCC(c1ccccc1)N2 (stereo not shown) [Example 150, N-(2-hydroxyethyl)-N-methyl-2-(2-phenyl-1,2,3,4-tetrahydroquinolin-6-yl)acetamide]
CC1(C)CN(C(=O)Cc2ccc3c(c2)CCC(c2ccccc2)N3)C1 (stereo not shown) [Example 146, 1-(3,3-dimethylazetidin-1-yl)-2-(2-phenyl-1,2,3,4-tetrahydroquinolin-6-yl)ethan-1-one]
